The test system of series [1] is HL60. The series can be described thus: MTT cell viability assay in HL60 cells. Format: cell-based. Conditions: 72 h. As to the method:
(§1) FIG. 2A is a graph comparison of IC50 of Uttroside B in a panel of cancer cells of different origin. The cancer cell lines HeLa, A375, HepG2, MDA-MB-231, HL 60, A549 and HCT116 were treated with Uttroside B as indicated, incubated for 72 h and the cell viability was assessed by MTT assay. FIG. 2B is a graph showing dose dependent effect of Uttroside B in the liver cancer cell lines and in normal immortalized hepatocytes. The liver cancer cell lines HepG2, Hep3B, SKHEP-1, Huh-7 and normal hepatocytes (Chang liver), were treated with Uttroside B incubated for 72 h and the cell viability was assessed by MTT assay. FIG. 2C is a graph comparison of IC50 of Uttroside B with sorafenib. HepG2 cells were treated with Uttroside B as indicated, incubated for 72 h, and the cell viability was assessed by MTT assay. […] The clones developed were counted and plotted as a graph. Colony containing more than four cells was counted as one clone. […]
(§2) MTT [3-(4,5-dimethylthiazole-2-yl)-2,5-diphenyltetrazolium bromide] assay is a standard colorimetric assay, suitable for analyzing proliferation, viability, and cytotoxicity. […] After overnight incubation, cells were treated with different concentrations of organic extracts (25-250 μg/ml) of S. nigrum and the isolated compound Uttroside B (250-1250 nM) for 72 h and cytotoxicity was measured. […]

Series [2] has as its system HCT-116. In words: MTT cell viability assay in HCT-116 cells. The class given is cell-based. To be noted: 72 h. The method, then:
as §1
MTT [3-(4,5-dimethylthiazole-2-yl)-2,5-diphenyltetrazolium bromide] assay is a standard colorimetric assay, suitable for analyzing proliferation, viability, and cytotoxicity. […] At the end of incubation, the optical density was measured at 570 nm using ELISA plate reader (Bio-Rad). The relative cell viability in percentage was calculated as (A570 of treated samples/A570 of untreated samples)×100. […]

The test system of series [3] is hepatocellular carcinoma cells (HepG2, Hep3B, SKHep1, and Huh-7). The series can be described thus: MTT assay in different hepatocellular carcinoma cells. The class given is cell-based. To be noted: SKHep1, Huh-7, 72 h, read-out: IC50 in liver cancer cells. The method, then: as §1, §2
Series [4] relates to LC3 in HepG2 cells. The series can be described thus: Autophagy flux (LC3I to LC3II conversion) with Bafilomycin. The class given is cell-based, human. Conditions: Uttroside B 500 nM + Bafilomycin 10 nM, 24 h. As to the method: Concentration dependent effect of BafilomycinAl on the endogenous conversion of LC3I to LC3II in HepG2 cells. Cells were treated with Bafilomycin Al at different concentration and the whole cell lysate was resolved on a 15% gel and immunoblotted against LC3 antibody. Uttroside B is an autophagy inducer in HepG2 cells as analysed by autophagy flux using Bafilomycin Al. […] The increase in LC3 II could not be considered as a fool proof of autophagic induction because a blockage in any step leading from autophagosome maturation to its fusion with lysosomes could cause its accumulation. So, the effect of Uttroside B in HepG2 cells were analyzed for autophagy flux, a more accurate read out of autophagy on co-treatment with Bafilomycin, an autophagy-lysosome inhibitor. Bafilomycin A, blocks autophagy by blocking the fusion of autophagosome with lysosome which cause the accumulation of autophagosome or LC3. First, the concentration of Bafilomycin Al required for saturating the blockage of autophagy-lysosome fusion was standardized. The efficacy of Bafilomycin Al, in terms of blocking autophagosome degradation in HepG2, was found peaked at 10 nM, beyond which no further accumulation of LC3 II was noted, which matched with the earlier reports.^32,37,38 […]

In series [5] the test system is HeLa cells. Conditions: literature ref 12; read-out: IC50, cytotoxicity against HeLa (cervical cancer cells); cited from earlier work.

Structures are written as SMILES.

On to `C[C@H](CC[C@@]1(O)O[C@H]2C[C@H]3[C@@H]4CC[C@H]5C[C@@H](O[C@@H]6O[C@H](CO)[C@H](O[C@@H]7O[C@H](CO)[C@@H](O)[C@H](O[C@@H]8OC[C@@H](O)[C@H](O)[C@H]8O)[C@H]7O[C@@H]7O[C@H](CO)[C@@H](O)[C@H](O)[C@H]7O)[C@H](O)[C@H]6O)CC[C@]5(C)[C@H]4CC[C@]3(C)[C@H]2[C@@H]1C)CO[C@@H]1O[C@H](CO)[C@@H](O)[C@H](O)[C@H]1O` [Uttroside B], for which the half-inhibitory concentration (IC50) is 2.5 µM in series [1], 6 µM in series [2], 0.4 to 0.6 µM in series [3] and 15.4 µM in series [5]. For the same molecule, the “LC3II on co-treatment with Bafilomycin” value in series [4] is “surplus accumulation of LC3II”.

These data come from patent US11607422B2, “Uttroside B and derivatives thereof as therapeutics for hepatocellular carcinoma” (Rajiv Gandhi Centre for Biotechnology, an Autonomous …, priority 2016, dated 2023).
